# Reference: patent US5723494A, “Derivatives of glutamic and aspartic acids, a method of preparing them, and their use as drugs for enhancing memory and learning” (priority 1993, dated 1998)
# System: not listed separately
# Experiment: Memory-enhancement activity in the passive avoidance test in the rat
# Format: in vivo, rat (male Wistar)
# Details: 96 h; 0.1 mg/kg IP, rat, retest on the 4th day, 6 treatments; read-out: % variation vs controls (FS) in step through latency
# Experimental: 2) Memory-enhancement activity in the "passive avoidance" test in the rat
# A "passive avoidance" model was used, which required a single "step-through" situation and a retest of the "retention memory" 72 h after the training.
# Male Wistar rats which weighed about 200 g and had not fasted, were used. The test consisted of evaluating the degree of memory of an animal after it had been trained as follows.
# The equipment used was a shuttle box modified thus: one compartment was lined with black card including the cover, and a 60 W lamp was disposed above the other, spaced from the grid floor by about 40 cm. The two compartments were divided by an automatic guillotine-like door. Each animal was placed in the compartment in the light with the guillotine-likedoor open. From this moment, the time taken by the rat to go into the compartment lined with black card (the dark compartment) (the step-throughlatency=STL) was measured. The animals which took more than 30 sec to go into the dark were discarded. Once they had gone into the dark, the door was lowered automatically and a=0.1 mA shock lasting 5 sec (a foot shock=FS) started. After 10 sec, the animal was removed from the shuttle box.
# Upon completion, the animals were selected randomly in homogeneous groups and treated with the products.
# The retest to determine memory was made after 72 hours. The products were administered chronically in the preselected manner twice per day and the last treatment 30 min before the retest (6 treatments altogether).
# The memory-retention test (the retest) consisted of placing each animal, treated 30 min beforehand with a physiological solution or with the product, in the compartment which was not lined with black card for 30 sec.
# The results are expressed as the percentage variation of the STL (in seconds) of the groups treated in comparison with the control group by means of this formula: [formula]
row,SMILES,change in vivo at 0.1 mg/kg [%]
1,N[C@@H](CCC(=O)O)C(=O)N1CCC2(CCCCC2)CC1 [Compound 32],0

# Same assay, conditions: 96 h; 1 mg/kg IP, rat, retest on the 4th day, 6 treatments; read-out: % variation vs controls (FS) in step through latency
row,SMILES,change in vivo at 1 mg/kg [%]
1,N[C@@H](CCC(=O)O)C(=O)N1CCC2(CCCCC2)CC1 [Compound 32],14

# Same assay, conditions: 96 h; 10 mg/kg IP, rat, retest on the 4th day, 6 treatments; read-out: % variation vs controls (FS) in step through latency
row,SMILES,change in vivo at 10 mg/kg [%]
1,N[C@@H](CCC(=O)O)C(=O)N1CCC2(CCCCC2)CC1 [Compound 32],15

# Same assay, conditions: rat, IP, retest on the 4th day
row,SMILES,Activity in increasing the avoidance time (in words)
1,"NC(=O)CN1CCCC1=O [Piracetam, reference compound]",inactive

# System: not listed separately
# Experiment: Antiamnesic activity in the mouse (step-down passive avoidance, amnesia induced by ECS)
# Format: in vivo, mouse (CD1 male)
# Details: OS, mouse
# Source text: 1) Antiamnesic activity in the mouse (step-down passive avoidance)
# An electroconvulsive shock (ECS) produces retrograde amnesia in the test animal if applied immediately after the training received, for example, a harmful stimulus of a suitable intensity.
# The object of the experiment was to study the effects of the compounds of the invention in antagonizing the amnesic effect of an ECS on the short-term memory consolidation process.
# CD1 male mice which weighed about 30-35 g, and had not fasted were used. The equipment used was a rectangular plexiglass cage (21×21×40cm) with an electrifiable grid floor and a wooden cube (4×4×4 cm) fixed in the centre of the cage. The animals were treated orally with the product under test 60 minutes before the training.
# The mouse was placed delicately on the wooden cube and the time it took to descend to the grid floor (SDL=step-down latency) was measured. When all four of the animal's paws were resting on the floor the continuous 0.2 mA shock started and the time taken by The mouse to remount the wooden cube (EL=escape latency) was measured.
# The animals with an SDL of between 3 and 30 sec and with an EL of between 3 and 60 sec were used for retesting.
# Immediately afterwards, a transcorneal ECS was applied with the use of the following parameters: amperage 15 mA, frequency 50 Hz, duration of the train of pulses 0.4 sec. duration of each individual pulse 1 msec., interval between pulses 20 msec. As well as the groups treated with ECS, a control group without ECS and a control group with ECS were used.
# The retest was carried out after 24 h.
# The results are expressed as the percentage variation of the SDL of the treated groups in comparison with the control group by means of this formula: [formula]
row,SMILES,Antiamnesic activity (in words)
1,CN1CCN(C(=O)[C@@H](N)CCC(=O)O)CC1 [Compound 36],particularly remarkable
2,"NC(=O)CC[C@H](N)C(=O)O [L-glutamine, reference compound]",inactive

# Same assay, conditions: po; 0.1 mg/kg OS, mouse, retest 24 h after training; read-out: Reversal of the amnesia (% vs controls), as the increase in the Step Down Latency
row,SMILES,change in vivo at 0.1 mg/kg [%]
1,N[C@@H](CCC(=O)O)C(=O)NC1CC2CCC1C2 (stereo partly drawn) [Compound 10],0
2,CCCCCN(CCCCC)C(=O)[C@@H](N)CCC(=O)O [Compound 28],0
3,N[C@@H](CCC(=O)O)C(=O)N1CCC2(CCCCC2)CC1 [Compound 32],7

# Same assay, conditions: po; 0.3 mg/kg OS, mouse, retest 24 h after training; read-out: Reversal of the amnesia (% vs controls), as the increase in the Step Down Latency
row,SMILES,change in vivo at 0.3 mg/kg [%]
1,CCCCCNC(=O)[C@@H](N)CCC(=O)O [Compound 2],0
2,CN1CCN(C(=O)[C@@H](N)CCC(=O)O)CC1 [Compound 36],12

# Same assay, conditions: po; 1 mg/kg OS, mouse, retest 24 h after training; read-out: Reversal of the amnesia (% vs controls), as the increase in the Step Down Latency
row,SMILES,change in vivo at 1 mg/kg [%]
1,N[C@@H](CCC(=O)O)C(=O)NC1CC2CCC1C2 (stereo partly drawn) [Compound 10],26
2,CCCCCN(CCCCC)C(=O)[C@@H](N)CCC(=O)O [Compound 28],0
3,N[C@@H](CCC(=O)O)C(=O)N1CCC2(CCCCC2)CC1 [Compound 32],17
4,CN1CCN(C(=O)[C@@H](N)CCC(=O)O)CC1 [Compound 36],10
5,"NC(=O)CC[C@H](N)C(=O)O [L-glutamine, reference compound]",0

# Same assay, conditions: po; 3 mg/kg OS, mouse, retest 24 h after training; read-out: Reversal of the amnesia (% vs controls), as the increase in the Step Down Latency
row,SMILES,change in vivo at 3 mg/kg [%]
1,CCCCCNC(=O)[C@@H](N)CCC(=O)O [Compound 2],0
2,N[C@@H](CCC(=O)O)C(=O)NC1CC2CCC1C2 (stereo partly drawn) [Compound 10],23
3,N[C@@H](CCC(=O)O)C(=O)NC1CCCCC1 [Compound 19],10
4,CC1(C)CC2CC(C)(CN2C(=O)[C@@H](N)CCC(=O)O)C1 (stereo partly drawn) [Compound 33],11
5,CN1CCN(C(=O)[C@@H](N)CCC(=O)O)CC1 [Compound 36],29

# Same assay, conditions: po; 10 mg/kg OS, mouse, retest 24 h after training; read-out: Reversal of the amnesia (% vs controls), as the increase in the Step Down Latency
row,SMILES,change in vivo at 10 mg/kg [%]
1,N[C@@H](CCC(=O)O)C(=O)NC1CCCCC1 [Compound 19],22
2,CCCCCN(CCCCC)C(=O)[C@@H](N)CCC(=O)O [Compound 28],8
3,N[C@@H](CCC(=O)O)C(=O)N1CCC2(CCCCC2)CC1 [Compound 32],10
4,CC1(C)CC2CC(C)(CN2C(=O)[C@@H](N)CCC(=O)O)C1 (stereo partly drawn) [Compound 33],10
5,CN1CCN(C(=O)[C@@H](N)CCC(=O)O)CC1 [Compound 36],53
6,"NC(=O)CC[C@H](N)C(=O)O [L-glutamine, reference compound]",10

# Same assay, conditions: po; 30 mg/kg OS, mouse, retest 24 h after training; read-out: Reversal of the amnesia (% vs controls), as the increase in the Step Down Latency
row,SMILES,change in vivo at 30 mg/kg [%]
1,CCCCCNC(=O)[C@@H](N)CCC(=O)O [Compound 2],0
2,N[C@@H](CCC(=O)O)C(=O)NC1CCCCC1 [Compound 19],18
3,CC1(C)CC2CC(C)(CN2C(=O)[C@@H](N)CCC(=O)O)C1 (stereo partly drawn) [Compound 33],52

# Same assay, conditions: po; 100 mg/kg OS (footnote), mouse, retest 24 h after training; read-out: Reversal of the amnesia (% vs controls), as the increase in the Step Down Latency
row,SMILES,change in vivo at 100 mg/kg [%]
1,"NC(=O)CC[C@H](N)C(=O)O [L-glutamine, reference compound]",12

# Same assay, conditions: po; OS, mouse, 60 min before training; read-out: ID50 (antiamnesic activity, dose inhibiting the amnesic effect of the ECS by 50%)
row,SMILES,ED50 [mg/kg]
1,CC1(C)CC2CC(C)(CN2C(=O)[C@@H](N)CCC(=O)O)C1 (stereo partly drawn) [Compound 33],42.3
2,CN1CCN(C(=O)[C@@H](N)CCC(=O)O)CC1 [Compound 36],12.4

# System: not listed separately
# Experiment: Antidepressant activity in the behavioural despair test in the mouse
# Format: in vivo, mouse (male CD1)
# Details: 5 min, 1 mg/kg IP, 5 minutes, read-out: Decrease in immobility (as %) vs the controls
# Source text: 5) Antidepressant activity in the "behavioural despair test" Another interesting aspect of the pharmacological activity of these products is the potent antidepressant activity which some of them display in an experimental model in the mouse, in which a state of depression is induced experimentally by the method of Porsolt et al. (Arch. Int. Pharmacodyn. 229, p. 327-336 (1977)). Male CDl mice which weighed about 20-25 g and had not fasted were used. The test consisted of inducing a state of depression in the animal which was subjected to forced swimming in a glass cylinder from which it could not escape. After a short period of vigorous activity the mouse adopted a characteristic posture of immobility which was easily identifiable; this immobility is reduced by antidepressant drugs. 1 l glass beakers, filled to 700 ml with water at a temperature of 25° C. were used for the test. The mice, 8 per group, were treated intraperitoneally with the drug under test, 30 minutes before the test. At time 0, each animal was immersed in a beaker and, after one minute during which all moved about swimming vigorously in order to escape, regardless of treatment, the observer, who was unaware of the treatment, assigned the following points: 0=animal immobile 1=minimum movement to remain afloat 2=vigorous swimming The greater the antidepressant activity of the drug, the more the animals will move about in order to try to escape from the water. The points were assigned every 15 sec for a total period of 5 min with a total of 20 observations. The antidepressant activity was determined with the use of various doses of the compound by the regression method as the ED50, that is, the dose in mg/kg of the compound which could antagonise the animal's immobility time by 50%.
row,SMILES,inhibition in vivo at 1 mg/kg [%]
1,"CN(C)CCC=C1c2ccccc2CCc2ccccc21 [Amitriptyline, reference compound]",19

# Same assay, conditions: 5 min, 3 mg/kg IP, 5 minutes, read-out: Decrease in immobility (as %) vs the controls
row,SMILES,inhibition in vivo at 3 mg/kg [%]
1,"CN(C)CCC=C1c2ccccc2CCc2ccccc21 [Amitriptyline, reference compound]",20

# Same assay, conditions: 5 min, 10 mg/kg IP, 5 minutes, read-out: Decrease in immobility (as %) vs the controls
row,SMILES,inhibition in vivo at 10 mg/kg [%]
1,"CN(C)CCC=C1c2ccccc2CCc2ccccc21 [Amitriptyline, reference compound]",88

# Same assay, conditions: IP, read-out: ED50 (dose antagonising immobility time by 50%)
row,SMILES,ED50 [mg/kg]
1,"CN(C)CCC=C1c2ccccc2CCc2ccccc21 [Amitriptyline, reference compound]",4.1

# Target: excitor amino-acid receptors of cortical membranes ("forebrain") of rats
# Experiment: Inhibition of the specific binding of [3H]-glutamate to rat forebrain membranes
# Details: rat forebrain membranes, 20 min, 37° C., pH 7.1
# Source text: 6) Studies on binding to rat "forebrain" membranes
# L-glutamate recognizes all three receptor subtypes indicated above, al though not selectively. It is therefore desirable to evaluate the capacity of each of the compounds of the invention to interact with the excitor amino-acid receptors of the CNS.
# "Forebrain", that is, the cerebral cortex and the hippocampus, were selected as the receptor tissue and ^3 H-L-glutamate as the ligand for marking this heterogenous receptor population.
# Rat cerebral tissue (forebrain without striated tissue) was therefore homogeneised cold in tris buffer at pH 7.4. After washing and centrifuging, the final pellet was resuspended in 50 volumes of tris HCl binding buffer at 7.1. 0.5 ml of receptor membrane thus obtained were then incubated, together with the radioactive tracer and the compounds under test, for 20 min at 37° C. The reaction was terminated by separating the bound radio-ligand from the free radio-ligand by filteration on glass-fibre filters which, after washing, were counted in a liquid scintillator (a β-counter) thus determining the radioactivity associated with the pellet. The specific binding was determined as the difference between the binding in the absence and in the presence of cold 3.6 mM L-glutamate.
row,SMILES,IC50 [µM]
1,CCCCNC(=O)[C@@H](N)CCC(=O)O [Compound 1],72
2,CCCCCNC(=O)[C@@H](N)CCC(=O)O [Compound 2],74.6
3,CCCCCCNC(=O)[C@@H](N)CCC(=O)O [Compound 3],70
4,CC(C)(C)CCNC(=O)[C@H](N)CCC(=O)O [Compound 6],> 1000
5,CCCCC(CC)CCNC(=O)[C@@H](N)CCC(=O)O (stereo partly drawn) [Compound 8],56.4
6,N[C@@H](CCC(=O)O)C(=O)NC1CC2CCC1C2 (stereo partly drawn) [Compound 10],16
7,N[C@@H](CCC(=O)O)C(=O)NC1CCCCC1 [Compound 19],17.2
8,CC1(C)CC2CC(C)(CN2C(=O)[C@@H](N)CCC(=O)O)C1 (stereo partly drawn) [Compound 33],203
